≈ marks a conversion by molar mass, not a printed value. Read-outs that look alike come from different tables or passages of the source.
What was measured:
S. typhimurium TA98 = experiment: Bacterial reverse mutation (BRM) test; assay type: cell-based
Method: (§1) The BRM test was performed in accordance with OECD Guideline 471 using Salmonella tyiphimurium TA98, TA100, TA1535, and TA1537, and Escherichia coli WP2 uvrA [11]. Each bacterial strain was pre-cultured at 37 °C for 18 h using a nutrient broth (Nissui Pharmaceutical; http://www.nissui-pharm.co.jp/index_e.html). After adjustment to 2.4 at OD660 nm, each bacterial suspension was added to a test tube containing the designated compound in the absence or presence of rat liver microsome (S9) mix. After a 20-min incubation at 37 °C, top agar was added to each test tube and the contents were poured into minimum essential medium (Oriental Yeast; http://www.oyc.co.jp/e/index.htm). The number of revertants was counted 48 h after incubation at 37 °C.

S. typhimurium TA1537 = experiment: Bacterial reverse mutation (BRM) test; assay type: cell-based
Method: as §1

E. coli WP2 uvr A = experiment: Bacterial reverse mutation (BRM) test; assay type: cell-based
Method: as §1

S. typhimurium TA1535 = experiment: Bacterial reverse mutation (BRM) test; assay type: cell-based; settings: S9 mix +; positive control 2AA 2 μg/plate
Method: as §1

S. typhimurium TA100 = experiment: Bacterial reverse mutation (BRM) test; assay type: cell-based
Method: as §1

CYP1A1/2 = experiment: 7-Ethoxyresorufin O-deethylation in human liver microsomes; assay type: in vitro ADME; settings: 100 μM; 0.5 μM 7-ethoxyresorufin
[1] = system: M. tuberculosis ATCC 25618 (H37Rv); experiment: Susceptibility testing (agar dilution MIC); assay type: cell-based; settings: Mycobacterium tuberculosis, 336 h
[2] = system: M. tuberculosis ATCC 35837 (H37Rv-E-R); experiment: microbe, parasite or virus in culture; assay type: cell-based; settings: Mycobacterium tuberculosis, 336 h
[3] = system: M. tuberculosis ATCC 35820 (H37Rv-S-R); experiment: microbe, parasite or virus in culture; assay type: cell-based; settings: Mycobacterium tuberculosis, 336 h
[4] = system: M. tuberculosis ATCC 35838 (H37Rv-R-R); experiment: microbe, parasite or virus in culture; assay type: cell-based; settings: Mycobacterium tuberculosis, 336 h
[5] = system: M. tuberculosis ATCC 35822 (H37Rv-H-R); experiment: microbe, parasite or virus in culture; assay type: cell-based; settings: Mycobacterium tuberculosis, 336 h
[6] = system: M. tuberculosis ATCC 35812 (Kurono); experiment: Susceptibility testing (agar dilution MIC); assay type: cell-based; settings: Mycobacterium tuberculosis, ATCC35812, 336 h
[7] = system: clinically isolated M. tuberculosis; experiment: microbe, parasite or virus in culture; assay type: cell-based; settings: Mycobacterium tuberculosis; read-out: MIC90
M. tuberculosis Kurono = experiment: Therapeutic efficacy in an experimental mouse model of chronic TB; assay type: in vivo, ICR mice; settings: for Log of Viable Counts/Lung: 672 h; for Dose that could produce a CFU reduction of at least 95%: lung; for Dose that could produce a CFU reduction of at least 95% / Dose groups that showed a significant decrease in pulmonary viable bacterial count when compared with the vehicle control group: once daily for 28 d
[8] = Plasma levels in an experimental mouse model of TB; settings: in vivo, po
[9] = system: mycolic acid synthesis in M. bovis BCG; experiment: microbe, parasite or virus in culture; assay type: cell-based; settings: Mycobacterium tuberculosis variant bovis BCG, BCG
[10] = system: intracellular M. tuberculosis H37Rv in THP-1 cells; experiment: Activity against intracellular mycobacteria, 4-h pulsed exposure; assay type: cell-based, M. tuberculosis; human THP-1 cells; settings: further 68-h culture
[11] = S9 mix −, positive control AF-2 0.01 μg/plate
[12] = 7H11 agar, 37 °C, 14 d, read-out: MIC

Nc1ccc2cc3ccccc3cc2c1 [2AA, 2-aminoanthracene]
Revertants/Plate (S. typhimurium TA98; S9 mix +, positive control 2AA 0.5 μg/plate): 36 92 Revertants/Plate
Revertants/Plate (S. typhimurium TA1537; S9 mix +, positive control 2AA 2 μg/plate): 81 238 Revertants/Plate
Revertants/Plate (E. coli WP2 uvr A; S9 mix +, positive control 2AA 10 μg/plate): 33 1122 Revertants/Plate
Revertants/Plate (S. typhimurium TA1535): 6 188 Revertants/Plate
Revertants/Plate (S. typhimurium TA100; S9 mix +, positive control 2AA 1 μg/plate): 108 1103 Revertants/Plate

O=c1cc(-c2ccccc2)oc2c1ccc1ccccc12 [7,8-Benzoflavone, 7,8-benzoflavone]
Percent of Control (CYP1A1/2): 3.8% of Control

Nc1c2ccccc2nc2ccccc12 [ACR, 9-aminoacridine]
Revertants/Plate (S. typhimurium TA1537; S9 mix −, positive control ACR 80 μg/plate): 64 953 Revertants/Plate

NC(=O)C(=Cc1ccc([N+](=O)[O-])o1)c1ccco1 [AF-2, 2-(2-furyl)-3-(5-nitro-2-furyl)acrylamide]
Revertants/Plate (S. typhimurium TA98; S9 mix −, positive control AF-2 0.1 μg/plate): 29 473 Revertants/Plate
Revertants/Plate (E. coli WP2 uvr A; [11]): 30 225 Revertants/Plate
Revertants/Plate (S. typhimurium TA100; [11]): 98 547 Revertants/Plate

CCC1Cn2cc([N+](=O)[O-])nc2O1 (stereo not shown) [CGI-17341]
MIC [1, 12]: 0.2 µg/mL (≈ 1.09 µM)
MIC [2]: 0.2 µg/mL (≈ 1.09 µM)
MIC [3]: 0.2 µg/mL (≈ 1.09 µM)
MIC [4]: 0.05 µg/mL (≈ 0.273 µM)
MIC [5]: 0.2 µg/mL (≈ 1.09 µM)
MIC [6, 12]: 0.2 µg/mL (≈ 1.09 µM)

CC[C@@H](CO)NCCN[C@@H](CC)CO [EB, ethambutol]
MIC [1]: 1.56 µg/mL (≈ 7.64 µM)
MIC [2]: 50 µg/mL (≈ 245 µM)
MIC [3]: 3.13 µg/mL (≈ 15.3 µM)
MIC [4]: 1.56 µg/mL (≈ 7.64 µM)
MIC90 [7]: 3.64 µg/mL (≈ 17.8 µM)
MIC [5]: 3.13 µg/mL (≈ 15.3 µM)
Log of Viable Counts/Lung (M. tuberculosis Kurono; 20 mg/kg): 6.923 ± 0.721^a:NS, b:NS
Log of Viable Counts/Lung (M. tuberculosis Kurono; 40 mg/kg): 6.696 ± 0.382^a:NS, b:NS
Log of Viable Counts/Lung (M. tuberculosis Kurono; 80 mg/kg): 6.429 ± 0.475^a:NS, b:NS
Log of Viable Counts/Lung (M. tuberculosis Kurono; 160 mg/kg): 5.642 ± 0.120^a:**, b:**
Dose that could produce a CFU reduction of at least 95% (M. tuberculosis Kurono): > 160 mg/kg
Dose groups that showed a significant decrease in pulmonary viable bacterial count when compared with the vehicle control group (M. tuberculosis Kurono): 160 mg/kg
MIC [6]: 3.13 µg/mL (≈ 15.3 µM)
AUC(0-t) [8]: 12200 ng·h/mL
concentration at 0.083 h [8]: 55 ± 49 ng/mL
concentration at 0.25 h [8]: 1300 ± 939 ng/mL
concentration at 0.5 h [8]: 3170 ± 392 ng/mL
concentration at 1 h [8]: 3510 ± 1130 ng/mL
concentration at 2 h [8]: 2510 ± 1010 ng/mL
concentration at 4 h [8]: 1020 ± 202 ng/mL
AUC(0-t) ([8]; 100 mg/kg): 12100 ng·h/mL
Cmax ([8]; 100 mg/kg): 3510 ng/mL
Tmax ([8]; 100 mg/kg): 1 h
half-life ([8]; 100 mg/kg): 2.8 h

Cc1nc2c([nH]1)c(=O)n(C)c(=O)n2Cc1ccco1 [Furafylline, furafylline]
Percent of Control (CYP1A1/2): 32.3% of Control

NNC(=O)c1ccncc1 [INH, isoniazid]
MIC [1]: 0.1 µg/mL (≈ 0.729 µM)
MIC [2]: 0.2 µg/mL (≈ 1.46 µM)
MIC [3]: 0.1 µg/mL (≈ 0.729 µM)
MIC [4]: 0.1 µg/mL (≈ 0.729 µM)
MIC90 [7]: 0.099 µg/mL (≈ 0.722 µM)
MIC [5]: > 100 µg/mL
Log of Viable Counts/Lung (M. tuberculosis Kurono; 1.25 mg/kg): 6.702 ± 0.237^c:NS, d:NS
Log of Viable Counts/Lung (M. tuberculosis Kurono; 2.5 mg/kg): 5.751 ± 0.358^c:**, d:*
Log of Viable Counts/Lung (M. tuberculosis Kurono; 5 mg/kg): 4.944 ± 0.760^c:**, d:**
Log of Viable Counts/Lung (M. tuberculosis Kurono; 10 mg/kg): 4.434 ± 0.319^c:**, d:**
Log of Viable Counts/Lung (M. tuberculosis Kurono; 20 mg/kg): 4.595 ± 0.452^c:**, d:**
Dose that could produce a CFU reduction of at least 95% (M. tuberculosis Kurono): 5 mg/kg
Dose groups that showed a significant decrease in pulmonary viable bacterial count when compared with the vehicle control group (M. tuberculosis Kurono): 2.5, 5, 10, and 20 mg/kg
IC50 ([9]; 1 h, read-out: IC50, Fatty acid): > 4 µg/mL
IC50 ([9]; 1 h, read-out: IC50, Keto-mycolic acid): 0.69 µg/mL (≈ 5.03 µM)
IC50 ([9]; 1 h, read-out: IC50, Methoxy-mycolic acid): 0.63 µg/mL (≈ 4.59 µM)
IC50 ([9]; 1 h, read-out: IC50, α-Mycolic acid): 1.85 µg/mL (≈ 13.5 µM)
IC50 ([9]; read-out: IC50 values, all mycolic acid subclasses): 0.63 to 1.85 µg/mL (≈ 4.59 to 13.5 µM)
Activity against intracellular M. tuberculosis H37Rv [10]: poor activity
MIC [6]: 0.1 µg/mL (≈ 0.729 µM)
concentration at 0.083 h [8]: 2170 ± 435 ng/mL
concentration at 0.25 h [8]: 3060 ± 779 ng/mL
concentration at 0.5 h [8]: 2280 ± 390 ng/mL
concentration at 1 h [8]: 1920 ± 478 ng/mL
concentration at 2 h [8]: 740 ± 202 ng/mL
concentration at 4 h [8]: 253 ± 57 ng/mL
AUC(0-t) ([8]; 10 mg/kg): 4550 ng·h/mL
Cmax ([8]; 10 mg/kg): 3060 ng/mL
Tmax ([8]; 10 mg/kg): 0.25 h
